We go through 1 compound from publication PMC11700832, “Small-molecule MMRi36 induces apoptosis in p53-mutant lymphomas by targeting MDM2/MDM4/XIAP for degradation” (Frontiers in Oncology, 2024).

The assay deals with T1, MDM2 (MDM2-MDM4 RING domain heterodimer) (Homo sapiens, UniProt O15151+Q00987).
T1 construct: RING domain heterodimers of MDM2-MDM4, co-expressed in E. coli; with MDM4 (RING domain)
Kind of assay: microscale thermophoresis; thermofluor (Tm […] to […] °C); in vitro ubiquitination activation. It counts as binding.

T1 sequence (Q00987 428-491 limits assumed): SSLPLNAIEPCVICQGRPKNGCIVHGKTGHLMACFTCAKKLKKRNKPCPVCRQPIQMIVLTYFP
T1 sequence (O15151 428-490 limits assumed): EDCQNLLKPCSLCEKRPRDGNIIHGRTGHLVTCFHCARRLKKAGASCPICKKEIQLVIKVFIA

For the compound `O=C1Nc2ccc(Br)cc2C12NN=C(c1ccccc1)S2` (stereo not shown) [MMRi36], the Kd was roughly 0.308 µM.
